# Measurements taken from patent publication US20100217003A1, “1,2,3,4-TETRAHYDROISOQUINOLINE DERIVATIVES HAVING EFFECTS OF PREVENTING AND TREATING DEGENERATIVE AND INFLAMMATORY DISEASES” (priority 2006, published 2010).
# System: activated microglial cell
# Experiment: BH4 production in an activated microglial cell
# Format: cell-based
# Conditions: activated microglial cell (FIG. 12)
compound,measurement,value
"COc1cc2c(cc1O)CNCC2 [HMTIQ, 7-hydroxy-6-methoxy-1,2,3,4-tetrahydroisoquinoline]",BH4 production,inhibitory effect
